Reference: patent US12281080B2, “Quinoline-based compounds and methods of inhibiting CDK8/19” (University of South Carolina, priority 2018, dated 2025)

Assays:
Experiment in all cases: KINOMEscan scanMAX
MRCKB (CDC42BPB) = MRCKB (CDC42BPB) (Homo sapiens (Human), UniProt Q9Y5S2); format: binding; settings: 2000 nM; read-out: Percent Control
EPHA2 = EPHA2 (Homo sapiens (Human), UniProt P29317); format: binding; settings: 2000 nM; read-out: Percent Control
MST1R = MST1R (Homo sapiens (Human), UniProt Q04912); format: binding; settings: 2000 nM; read-out: Percent Control
MET(M1250T) = MET(M1250T) (Homo sapiens (Human), UniProt P08581, M1250T); format: binding; settings: 2000 nM; read-out: Percent Control
PAK6 = PAK6 (Homo sapiens (Human), UniProt Q9NQU5); format: binding; settings: 2000 nM; read-out: Percent Control
WEE1 = WEE1 (Homo sapiens (Human), UniProt P30291); format: binding; settings: 2000 nM; read-out: Percent Control
ACVR2A = ACVR2A (Homo sapiens (Human), UniProt P27037); format: binding; settings: 2000 nM; read-out: Percent Control
MTOR = MTOR (Homo sapiens (Human), UniProt P42345); format: binding; settings: 2000 nM; read-out: Percent Control
PDGFRB = PDGFRB (Homo sapiens (Human), UniProt P09619); format: binding; settings: 2000 nM; read-out: Percent Control
[1] = biological target: RSK3(Kin.Dom.1-N-terminal) (RPS6KA2) (Homo sapiens (Human), UniProt Q15349); format: binding; settings: 2000 nM; read-out: Percent Control
CAMK2G = CAMK2G (Homo sapiens (Human), UniProt Q13555); format: binding; settings: 2000 nM; read-out: Percent Control
FLT3(D835V) = FLT3(D835V) (Homo sapiens (Human), UniProt P36888, D835V); format: binding; settings: 2000 nM; read-out: Percent Control
PRKG1 = PRKG1 (Homo sapiens (Human), UniProt Q13976); format: binding; settings: 2000 nM; read-out: Percent Control
SRPK2 = SRPK2 (Homo sapiens (Human), UniProt P78362); format: binding; settings: 2000 nM; read-out: Percent Control
PAK2 = PAK2 (Homo sapiens (Human), UniProt Q13177); format: binding; settings: 2000 nM; read-out: Percent Control
SRMS = SRMS (Homo sapiens (Human), UniProt Q9H3Y6); format: binding; settings: 2000 nM; read-out: Percent Control
BTK = BTK (Homo sapiens (Human), UniProt Q06187); format: binding; settings: 2000 nM; read-out: Percent Control
MINK (MINK1) = MINK (MINK1) (Homo sapiens (Human), UniProt Q8N4C8); format: binding; settings: 2000 nM; read-out: Percent Control
NDR1 (STK38) = NDR1 (STK38) (Homo sapiens (Human), UniProt Q15208); format: binding; settings: 2000 nM; read-out: Percent Control
KIT(V559D, T670I) = KIT(V559D, T670I) (Homo sapiens (Human), UniProt P10721, T670I/V559D); format: binding; settings: 2000 nM; read-out: Percent Control
[2] = biological target: RPS6KA5(Kin.Dom.2-C-terminal) (Homo sapiens (Human), UniProt O75582); format: binding; settings: 2000 nM; read-out: Percent Control
HIPK1 = HIPK1 (Homo sapiens (Human), UniProt Q86Z02); format: binding; settings: 2000 nM; read-out: Percent Control
FLT3(ITD, F691L) = format: binding, human; settings: 2000 nM
ACVR2B = ACVR2B (Homo sapiens (Human), UniProt Q13705); format: binding; settings: 2000 nM; read-out: Percent Control
PAK3 = PAK3 (Homo sapiens (Human), UniProt O75914); format: binding; settings: 2000 nM; read-out: Percent Control
Sequence of PAK3 (O75914 whole entry): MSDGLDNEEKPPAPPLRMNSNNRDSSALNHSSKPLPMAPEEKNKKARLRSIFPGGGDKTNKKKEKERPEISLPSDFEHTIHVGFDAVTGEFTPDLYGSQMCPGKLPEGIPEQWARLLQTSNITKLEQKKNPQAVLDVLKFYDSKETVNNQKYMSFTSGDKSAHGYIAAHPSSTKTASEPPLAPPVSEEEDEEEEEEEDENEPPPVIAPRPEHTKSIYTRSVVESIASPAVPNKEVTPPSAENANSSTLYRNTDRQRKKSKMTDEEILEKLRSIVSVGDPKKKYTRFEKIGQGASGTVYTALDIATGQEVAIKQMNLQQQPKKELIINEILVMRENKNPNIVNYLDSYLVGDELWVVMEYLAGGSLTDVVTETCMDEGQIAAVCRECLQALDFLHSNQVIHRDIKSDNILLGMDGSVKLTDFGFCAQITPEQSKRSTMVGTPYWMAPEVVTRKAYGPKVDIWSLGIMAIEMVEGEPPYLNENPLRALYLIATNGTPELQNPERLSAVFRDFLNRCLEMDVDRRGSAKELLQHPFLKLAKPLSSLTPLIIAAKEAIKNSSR

[3] = biological target: JAK1(JH2domain-pseudokinase) (Homo sapiens (Human), UniProt P23458); format: binding; settings: 2000 nM; read-out: Percent Control
Sequence of JAK1(JH2domain-pseudokinase) (P23458 583-855): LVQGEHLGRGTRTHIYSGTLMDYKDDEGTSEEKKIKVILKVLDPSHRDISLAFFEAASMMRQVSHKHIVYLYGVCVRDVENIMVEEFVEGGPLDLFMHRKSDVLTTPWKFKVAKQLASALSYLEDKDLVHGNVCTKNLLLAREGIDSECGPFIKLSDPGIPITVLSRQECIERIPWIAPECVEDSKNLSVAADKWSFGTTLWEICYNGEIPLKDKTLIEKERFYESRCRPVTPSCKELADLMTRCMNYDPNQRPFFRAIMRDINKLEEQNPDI

ICK = ICK (Homo sapiens (Human), UniProt Q9UPZ9); format: binding; settings: 2000 nM; read-out: Percent Control
EGFR(G719S) = EGFR(G719S) (Homo sapiens (Human), UniProt P00533, G719S); format: binding; settings: 2000 nM; read-out: Percent Control
CAMK4 = CAMK4 (Homo sapiens (Human), UniProt Q16566); format: binding; settings: 2000 nM; read-out: Percent Control
PIK3CD = PIK3CD (Homo sapiens (Human), UniProt O00329); format: binding; settings: 2000 nM; read-out: Percent Control
TEC = TEC (Homo sapiens (Human), UniProt P42680); format: binding; settings: 2000 nM; read-out: Percent Control
PIM3 = PIM3 (Homo sapiens (Human), UniProt Q86V86); format: binding; settings: 2000 nM; read-out: Percent Control
GRK1 = GRK1 (Homo sapiens (Human), UniProt Q15835); format: binding; settings: 2000 nM; read-out: Percent Control
NEK1 = NEK1 (Homo sapiens (Human), UniProt Q96PY6); format: binding; settings: 2000 nM; read-out: Percent Control
Sequence of NEK1 (Q96PY6 whole entry): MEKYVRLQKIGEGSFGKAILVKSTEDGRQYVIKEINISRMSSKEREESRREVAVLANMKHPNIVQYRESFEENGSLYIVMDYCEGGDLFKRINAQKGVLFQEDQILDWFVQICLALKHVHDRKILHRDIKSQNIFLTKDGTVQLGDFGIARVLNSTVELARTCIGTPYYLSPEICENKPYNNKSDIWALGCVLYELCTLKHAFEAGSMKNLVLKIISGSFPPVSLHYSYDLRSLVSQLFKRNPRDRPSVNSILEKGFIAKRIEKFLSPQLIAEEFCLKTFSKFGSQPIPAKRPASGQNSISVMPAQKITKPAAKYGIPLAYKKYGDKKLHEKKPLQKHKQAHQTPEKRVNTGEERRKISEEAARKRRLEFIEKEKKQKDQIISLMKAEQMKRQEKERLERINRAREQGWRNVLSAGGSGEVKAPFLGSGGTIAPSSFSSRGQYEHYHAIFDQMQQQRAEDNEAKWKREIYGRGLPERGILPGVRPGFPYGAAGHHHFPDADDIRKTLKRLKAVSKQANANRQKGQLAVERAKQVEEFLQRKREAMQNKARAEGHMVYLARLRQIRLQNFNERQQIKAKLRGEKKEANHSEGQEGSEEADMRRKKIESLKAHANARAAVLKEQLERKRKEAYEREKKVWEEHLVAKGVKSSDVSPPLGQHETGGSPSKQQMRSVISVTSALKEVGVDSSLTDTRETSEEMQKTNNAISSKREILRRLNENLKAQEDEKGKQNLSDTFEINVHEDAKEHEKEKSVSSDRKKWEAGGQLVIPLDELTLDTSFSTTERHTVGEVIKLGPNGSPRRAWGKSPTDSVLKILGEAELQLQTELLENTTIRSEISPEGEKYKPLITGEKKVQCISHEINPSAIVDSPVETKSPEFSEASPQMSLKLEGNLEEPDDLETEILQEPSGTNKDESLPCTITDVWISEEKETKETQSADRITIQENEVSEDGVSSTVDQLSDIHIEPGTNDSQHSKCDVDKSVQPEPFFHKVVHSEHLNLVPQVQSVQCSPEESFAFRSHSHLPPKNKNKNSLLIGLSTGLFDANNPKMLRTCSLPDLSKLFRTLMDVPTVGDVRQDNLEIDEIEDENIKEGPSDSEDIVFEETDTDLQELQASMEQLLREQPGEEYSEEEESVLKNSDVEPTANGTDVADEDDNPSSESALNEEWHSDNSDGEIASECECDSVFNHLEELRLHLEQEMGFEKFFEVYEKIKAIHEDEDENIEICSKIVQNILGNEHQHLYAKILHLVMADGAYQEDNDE

BIKE (BMP2K) = BIKE (BMP2K) (Homo sapiens (Human), UniProt Q9NSY1); format: binding; settings: 2000 nM; read-out: Percent Control
[4] = biological target: RPS6KA4(Kin.Dom.2-C-terminal) (Homo sapiens (Human), UniProt O75676); format: binding; settings: 2000 nM; read-out: Percent Control
GRK7 = GRK7 (Homo sapiens (Human), UniProt Q8WTQ7); format: binding; settings: 2000 nM; read-out: Percent Control
MET = MET (Homo sapiens (Human), UniProt P08581); format: binding; settings: 2000 nM; read-out: Percent Control
EPHA6 = EPHA6 (Homo sapiens (Human), UniProt Q9UF33); format: binding; settings: 2000 nM; read-out: Percent Control
RET(V804M) = RET(V804M) (Homo sapiens (Human), UniProt P07949, V804M); format: binding; settings: 2000 nM; read-out: Percent Control
Sequence of RET(V804M) (P07949 29-1114 V804M): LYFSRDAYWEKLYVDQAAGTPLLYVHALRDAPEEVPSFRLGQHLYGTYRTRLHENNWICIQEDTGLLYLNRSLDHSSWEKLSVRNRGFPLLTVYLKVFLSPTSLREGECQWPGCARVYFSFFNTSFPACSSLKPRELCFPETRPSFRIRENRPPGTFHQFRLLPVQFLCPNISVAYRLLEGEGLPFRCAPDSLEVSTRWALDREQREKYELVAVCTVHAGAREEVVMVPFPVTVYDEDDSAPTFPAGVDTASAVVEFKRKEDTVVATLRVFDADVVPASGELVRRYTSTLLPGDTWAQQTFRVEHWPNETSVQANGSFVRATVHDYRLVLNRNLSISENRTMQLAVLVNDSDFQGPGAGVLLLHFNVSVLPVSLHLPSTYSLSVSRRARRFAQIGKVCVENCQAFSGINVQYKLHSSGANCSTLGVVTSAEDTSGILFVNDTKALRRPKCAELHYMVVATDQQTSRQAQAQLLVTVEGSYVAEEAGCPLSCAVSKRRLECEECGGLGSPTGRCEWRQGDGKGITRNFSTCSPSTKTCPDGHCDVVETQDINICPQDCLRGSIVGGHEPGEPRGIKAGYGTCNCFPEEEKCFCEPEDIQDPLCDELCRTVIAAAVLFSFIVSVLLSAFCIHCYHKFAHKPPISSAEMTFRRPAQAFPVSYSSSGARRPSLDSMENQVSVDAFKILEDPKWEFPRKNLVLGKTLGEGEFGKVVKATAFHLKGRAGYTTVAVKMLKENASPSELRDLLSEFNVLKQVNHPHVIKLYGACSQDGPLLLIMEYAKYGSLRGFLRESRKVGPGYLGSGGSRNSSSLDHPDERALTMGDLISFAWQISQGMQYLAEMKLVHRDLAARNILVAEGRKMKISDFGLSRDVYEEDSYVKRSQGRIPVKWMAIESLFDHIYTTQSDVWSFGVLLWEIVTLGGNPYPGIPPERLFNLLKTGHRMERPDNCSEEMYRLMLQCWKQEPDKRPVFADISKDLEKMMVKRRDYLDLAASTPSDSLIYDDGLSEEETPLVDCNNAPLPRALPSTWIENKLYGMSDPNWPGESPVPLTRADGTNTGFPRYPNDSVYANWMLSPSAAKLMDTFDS

Sequence of MRCKB (CDC42BPB) (Q9Y5S2 whole entry): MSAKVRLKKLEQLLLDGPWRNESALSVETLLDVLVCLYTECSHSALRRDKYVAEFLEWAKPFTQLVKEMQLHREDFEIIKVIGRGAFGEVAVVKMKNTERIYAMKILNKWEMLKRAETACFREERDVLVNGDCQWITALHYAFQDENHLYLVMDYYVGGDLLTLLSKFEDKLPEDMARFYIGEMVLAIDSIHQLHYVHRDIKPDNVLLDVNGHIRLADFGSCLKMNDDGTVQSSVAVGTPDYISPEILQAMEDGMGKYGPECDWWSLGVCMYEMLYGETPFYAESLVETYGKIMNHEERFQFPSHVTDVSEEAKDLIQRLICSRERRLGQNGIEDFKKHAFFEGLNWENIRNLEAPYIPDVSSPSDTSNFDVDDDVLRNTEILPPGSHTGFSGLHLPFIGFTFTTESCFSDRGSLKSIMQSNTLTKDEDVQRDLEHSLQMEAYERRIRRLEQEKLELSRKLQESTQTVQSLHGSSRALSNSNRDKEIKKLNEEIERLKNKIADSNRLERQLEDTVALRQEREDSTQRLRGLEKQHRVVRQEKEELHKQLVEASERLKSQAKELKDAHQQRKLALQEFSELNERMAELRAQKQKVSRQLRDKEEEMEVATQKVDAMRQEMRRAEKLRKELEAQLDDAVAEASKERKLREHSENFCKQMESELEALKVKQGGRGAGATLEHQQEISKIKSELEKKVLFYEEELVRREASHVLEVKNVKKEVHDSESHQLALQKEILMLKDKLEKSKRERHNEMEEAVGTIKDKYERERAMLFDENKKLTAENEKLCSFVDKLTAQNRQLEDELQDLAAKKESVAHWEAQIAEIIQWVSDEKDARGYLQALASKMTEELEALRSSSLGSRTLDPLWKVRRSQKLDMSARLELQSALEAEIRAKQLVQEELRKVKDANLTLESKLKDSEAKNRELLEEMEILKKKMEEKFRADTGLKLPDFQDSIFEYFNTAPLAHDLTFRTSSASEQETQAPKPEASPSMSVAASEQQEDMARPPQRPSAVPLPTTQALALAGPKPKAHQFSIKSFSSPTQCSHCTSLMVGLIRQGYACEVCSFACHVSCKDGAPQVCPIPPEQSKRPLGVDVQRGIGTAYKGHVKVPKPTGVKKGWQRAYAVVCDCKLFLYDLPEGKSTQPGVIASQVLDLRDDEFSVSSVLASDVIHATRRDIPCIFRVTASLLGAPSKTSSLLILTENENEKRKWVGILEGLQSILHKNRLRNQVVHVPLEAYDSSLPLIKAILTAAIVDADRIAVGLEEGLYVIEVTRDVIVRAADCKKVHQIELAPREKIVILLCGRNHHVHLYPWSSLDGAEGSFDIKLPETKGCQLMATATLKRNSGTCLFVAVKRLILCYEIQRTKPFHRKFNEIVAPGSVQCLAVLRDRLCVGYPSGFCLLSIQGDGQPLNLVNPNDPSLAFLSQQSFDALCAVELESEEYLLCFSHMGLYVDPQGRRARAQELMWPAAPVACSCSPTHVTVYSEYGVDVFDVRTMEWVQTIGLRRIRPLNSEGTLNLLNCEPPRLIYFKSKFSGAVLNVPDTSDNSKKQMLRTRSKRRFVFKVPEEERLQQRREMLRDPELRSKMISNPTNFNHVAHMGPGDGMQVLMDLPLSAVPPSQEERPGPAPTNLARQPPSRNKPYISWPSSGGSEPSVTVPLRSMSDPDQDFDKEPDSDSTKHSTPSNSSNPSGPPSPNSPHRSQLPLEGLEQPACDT

CN1CCN(C(=O)c2ccc3cc(CCNc4ccnc5ccc(C#N)cc45)ccc3c2)CC1 [compound 6148, 4-((2-(6-(4-methylpiperazine-1-carbonyl)naphthalen-2-yl)ethyl)amino)quinoline-6-carbonitrile]
remaining binding at 2 µM (MRCKB (CDC42BPB)): 100% | remaining binding at 2 µM (EPHA2): 100% | remaining binding at 2 µM (MST1R): 100% | remaining binding at 2 µM (MET(M1250T)): 88% | remaining binding at 2 µM (PAK6): 90% | remaining binding at 2 µM (WEE1): 88% | remaining binding at 2 µM (ACVR2A): 89% | remaining binding at 2 µM (MTOR): 79% | remaining binding at 2 µM (PDGFRB): 94% | remaining binding at 2 µM [1]: 100% | remaining binding at 2 µM (CAMK2G): 100% | remaining binding at 2 µM (FLT3(D835V)): 67% | remaining binding at 2 µM (PRKG1): 100% | remaining binding at 2 µM (SRPK2): 94% | remaining binding at 2 µM (PAK2): 84% | remaining binding at 2 µM (SRMS): 75% | remaining binding at 2 µM (BTK): 78% | remaining binding at 2 µM (MINK (MINK1)): 56% | remaining binding at 2 µM (NDR1 (STK38)): 79% | remaining binding at 2 µM (KIT(V559D, T670I)): 90% | remaining binding at 2 µM [2]: 100% | remaining binding at 2 µM (HIPK1): 73% | Percent Control (FLT3(ITD, F691L)): 59% | remaining binding at 2 µM (ACVR2B): 90% | remaining binding at 2 µM (PAK3): 98% | remaining binding at 2 µM [3]: 58% | remaining binding at 2 µM (ICK): 54% | remaining binding at 2 µM (EGFR(G719S)): 100% | remaining binding at 2 µM (CAMK4): 95% | remaining binding at 2 µM (PIK3CD): 61% | remaining binding at 2 µM (TEC): 100% | remaining binding at 2 µM (PIM3): 96% | remaining binding at 2 µM (GRK1): 63% | remaining binding at 2 µM (NEK1): 84% | remaining binding at 2 µM (BIKE (BMP2K)): 97% | remaining binding at 2 µM [4]: 62% | remaining binding at 2 µM (GRK7): 87% | remaining binding at 2 µM (MET): 90% | remaining binding at 2 µM (EPHA6): 79% | remaining binding at 2 µM (RET(V804M)): 91%
